Results reported in patent publication US11691965B2, “Method for preparing pyrrolidinyl urea derivative” (ZHANGZHOU PIEN TZE HUANG PHARMACEUTICAL CO., LTD., priority 2020, dated 2023).

How the values were obtained:
TrkA = TrkA (Homo sapiens (Human), UniProt P04629); test: TrkA enzyme activity test; type: biochemical
Protocol: Experimental Example 1: TrkA Enzyme Activity Test
TK detection kit Cisbio-62TK0PEJ
Detection plate PerkinElmer-6007299
Envision PerkinElmer-2104
20 mM Hepes (pH 7.5), 10 mM MgCl2 (magnesium chloride), 1 mM EGTA, 0.01% Brij35, 0.1 mM Orthovanadate (sodium vanadate), 0.02 g/mL BSA (bovine serum protein), 2 mM DTT (dithiothreitol), 1% DMSO
This experiment was performed using Cisbio's homogeneous time-resolved fluorescence conjugate energy transfer (HTRF® method) for activity detection. In the detection plate, enzyme, biotin-labeled peptide substrate, ATP and detection compound were mixed and incubated for reaction. […] The data were represented by fluorescence signal readings at 665 nm and 620 nm respectively, with a high ratio of 665 nm/620 nm indicating high activity and a low ratio of 665 nm/620 nm indicating inhibition of activity. […]
In a 10 μL reaction system with a buffer of 20 mM Hepes (pH 7.5), 10 mM MgCl2, 1 mM EGTA, 0.01% Brij35, 0.1 mM sodium vanadate, 0.02 g/mL BSA, 2 mM DTT, 1% DMSO medium, containing 15 nM TrkA kinase, 0.3 μM biotin-TK peptide (biotin-labeled tyrosine kinase substrate polypeptide), 100 μM ATP were incubated at 23° C. for 120 minutes. […]

CYP1A2 = CYP1A2 (Homo sapiens (Human), UniProt P05177); type: in vitro ADME; details: microsomes, 10 min
Protocol: (§1) Experimental Example 2: Cytochrome P450 Isoenzyme Inhibitory Activity Test The inhibitory activities of test compound against different isoforms of human cytochrome P450 isoenzymes were determined. The test compound, standard inhibitor (100×final concentration) and mixed substrate working solution were prepared; the microsome frozen in −80° C. refrigerator was taken out and thawed. […]

CYP2C19 = CYP2C19 (Homo sapiens (Human), UniProt P33261); test: Cytochrome P450 isoenzyme inhibitory activity test (human liver microsomes); type: in vitro ADME; details: heading: Cytochrome P450 isoenzyme IC50 CYP2C19, 37° C., 10 minutes
Protocol: (§2) Experimental Example 2: Cytochrome P450 Isoenzyme Inhibitory Activity Test The inhibitory activities of test compound against different isoforms of human cytochrome P450 isoenzymes were determined. The test compound, standard inhibitor (100×final concentration) and mixed substrate working solution were prepared; the microsome frozen in −80° C. refrigerator was taken out and thawed. 2 μL of the compound to be tested and standard inhibitor solution were added to the corresponding wells, and at the same time, 2 μL of the corresponding solvent was added to the non-inhibitor control wells (NIC) and the blank control wells; secondly, 20 μL of mixed substrate solution was added to the corresponding wells except the blank wells (20 μL of Pb was added to the blank wells); human liver microsome solution was prepared (the solution was put back in the refrigerator immediately after using and marking the date), and then 158 μL of human liver microsome solution was added to all wells; the sample plate was put in a 37° C. water bath for pre-incubation, and then a coenzyme factor (NADPH) solution was prepared; after 10 minutes, 20 μL of NADPH solution was added to all wells, the sample plate was shaken well, and incubated in a 37° C. water bath for 10 minutes; at the corresponding time point, 400 μL of cold acetonitrile solution (internal standard is 200 ng/mL tolbutamide and labetalol) was added to terminate the reaction; after the plates were evenly mixed, the mixture was centrifuged at 4000 rpm for 20 minutes to precipitate protein; 200 μL of supernatant was added into 100 μL of water, shaken well and detected by LC/MS/MS.

CYP2C9 = CYP2C9 (Homo sapiens (Human), UniProt P11712); test: as above; type: in vitro ADME; details: heading: Cytochrome P450 isoenzyme IC50 CYP2C9, 37° C., 10 minutes
Protocol: as §2

CYP2D6 = CYP2D6 (Homo sapiens (Human), UniProt P10635); test: as above; type: in vitro ADME; details: heading: Cytochrome P450 isoenzyme IC50 CYP2D6, 37° C., 10 minutes
Protocol: as §2

CYP3A4 = CYP3A4 (Homo sapiens (Human), UniProt P08684); test: as above; type: in vitro ADME; details: heading: Cytochrome P450 isoenzyme IC50 CYP3A4, 37° C., 10 minutes
Protocol: as §2

[1] = In vivo pharmacokinetics study after single administration in rats; set-up: species or system Sprague Dawley rats
Protocol: Experimental Example 3: In Vivo Pharmacokinetics Study after Single Administration in Rats
Male SD rats were used as the test animals, and the plasma concentrations of the compound were determined after a single administration and the pharmacokinetic behavior was evaluated.
Sprague Dawley rats (male, 200 to 300 g, 7 to 9 weeks old, Shanghai Charles River Laboratory Animal Co., LTD.)
Standard protocols were used to test the pharmacokinetic characteristics of the tested compounds in rodents after intravenous injection and oral administration, in the experiment, the tested compounds were prepared into a clear solution or a homogeneous suspension, and the rats were given a single intravenous injection and oral administration. In the intravenous injection group, the solvent was a certain proportion of ethanol and normal saline solution or a certain proportion of HP-β cyclodextrin solution of dimethyl sulfoxide (the pH was adjusted 3 to 4), the mixture was vortex-stirred to prepare 1 mg/mL clear solution and filtered by a microporous membrane for later use; oral solvent was a certain proportion of sodium carboxymethyl cellulose solution or a certain proportion of HP-β cyclodextrin solution of dimethyl sulfoxide (the pH was adjusted to above 4), after the compound to be tested was mixed with the solvent, the mixture was vortex-stirred to obtain a uniform suspension of 30 mg/mL for later use.
(§3) C0 is the initial concentration, T1/2 is the elimination half-life, Vdss is the steady-state apparent volume of distribution, Cl is the total clearance, and AUC0-inf is area under the plasma drug concentration-time curve from 0 time to extrapolation to infinity area, Cmax is the peak concentration, and Tmax is the peak time.

[2] = In vivo pharmacokinetics study after single administration in Beagle dogs
Protocol: Experimental Example 4: In Vivo Pharmacokinetics Study after Single Administration in Beagle Dogs
Male Beagle dogs were used as the test animals, and the plasma concentrations of the compounds were determined after a single administration and the pharmacokinetic behavior was evaluated.
Beagle (male, 6 to 12 kg, more than 6 months old, Beijing Mars Biotechnology Co., Ltd.)
The purpose of the experiment was to test the pharmacokinetic characteristics of the tested compounds in non-rodents after intravenous injection and oral administration, in the experiment, the tested compounds were prepared into a clear solution or a homogeneous suspension, and the beagle dogs were given a single intravenous injection or oral administration. In the intravenous injection group, the solvent was a certain proportion of HP-β-cyclodextrin solution of dimethyl sulfoxide or a certain proportion of ethanol, and a normal saline solution of polyethylene glycol 400, vortexed and ultrasonicated to prepare a […] clear solution and filtered by microporous membrane for later use; oral solvent was a certain proportion of HP-β cyclodextrin solution of dimethyl sulfoxide or a certain proportion of sodium carboxymethyl cellulose solution, after the compound to be tested was mixed with the solvent, the solvent was vortexed and ultrasonicated to prepare a 3 mg/mL uniform suspension for later use.
as §3

[3] = test system: human cytochrome P450 isoenzymes; test: Cytochrome P450 isoenzyme inhibitory activity test, overall conclusion; type: in vitro ADME; details: human liver microsomes
Protocol: as §1

[4] = Sprague Dawley, rat, plasma, 2 mg/kg, male rats, 2 mpk intravenous injection
[5] = Sprague Dawley, rat, plasma, 300 mg/kg, male rats, 300 mpk oral
[6] = dog, plasma, 2 mg/kg, male Beagle dogs, 2 mpk intravenous injection
[7] = dog, plasma, 15 mg/kg, male Beagle dogs, 15 mpk oral

Sequence of TrkA (P04629 440-796): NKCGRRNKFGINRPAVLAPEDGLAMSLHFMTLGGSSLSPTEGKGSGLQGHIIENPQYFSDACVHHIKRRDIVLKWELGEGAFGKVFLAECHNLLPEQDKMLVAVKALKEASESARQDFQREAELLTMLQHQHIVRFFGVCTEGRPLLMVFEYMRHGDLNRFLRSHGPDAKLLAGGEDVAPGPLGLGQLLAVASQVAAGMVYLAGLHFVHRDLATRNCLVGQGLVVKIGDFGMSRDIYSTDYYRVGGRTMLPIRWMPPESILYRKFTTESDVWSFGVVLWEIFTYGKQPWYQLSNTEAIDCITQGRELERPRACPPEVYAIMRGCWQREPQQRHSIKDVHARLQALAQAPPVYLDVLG
Sequence of CYP2D6 (P10635 whole entry): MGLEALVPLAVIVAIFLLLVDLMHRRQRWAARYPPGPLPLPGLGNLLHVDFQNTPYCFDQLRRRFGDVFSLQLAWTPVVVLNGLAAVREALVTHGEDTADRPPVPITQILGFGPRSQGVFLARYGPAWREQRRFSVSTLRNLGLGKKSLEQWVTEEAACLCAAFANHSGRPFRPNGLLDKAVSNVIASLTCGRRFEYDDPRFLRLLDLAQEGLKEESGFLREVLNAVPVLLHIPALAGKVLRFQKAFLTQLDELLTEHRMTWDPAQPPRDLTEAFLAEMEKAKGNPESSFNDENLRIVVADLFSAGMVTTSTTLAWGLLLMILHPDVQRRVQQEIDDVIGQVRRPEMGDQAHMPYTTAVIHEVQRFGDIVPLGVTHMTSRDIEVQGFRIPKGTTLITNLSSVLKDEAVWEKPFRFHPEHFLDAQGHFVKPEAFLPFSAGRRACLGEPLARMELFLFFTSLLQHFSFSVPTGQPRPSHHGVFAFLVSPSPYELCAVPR
Sequence of CYP2C19 (P33261 whole entry, canonical isoform): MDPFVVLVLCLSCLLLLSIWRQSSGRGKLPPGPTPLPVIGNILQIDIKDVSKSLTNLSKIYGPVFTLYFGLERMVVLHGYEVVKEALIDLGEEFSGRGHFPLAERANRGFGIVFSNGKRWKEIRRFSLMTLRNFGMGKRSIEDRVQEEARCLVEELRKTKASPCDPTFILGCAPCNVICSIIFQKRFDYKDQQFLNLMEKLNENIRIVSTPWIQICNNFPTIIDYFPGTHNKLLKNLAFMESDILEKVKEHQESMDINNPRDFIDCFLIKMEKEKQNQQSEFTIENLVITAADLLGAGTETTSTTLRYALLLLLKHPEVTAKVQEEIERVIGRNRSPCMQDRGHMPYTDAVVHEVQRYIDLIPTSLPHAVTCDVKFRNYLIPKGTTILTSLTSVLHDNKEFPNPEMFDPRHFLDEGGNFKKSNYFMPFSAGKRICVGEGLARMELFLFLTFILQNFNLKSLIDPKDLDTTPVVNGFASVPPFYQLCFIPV
Sequence of CYP1A2 (P05177 whole entry, canonical isoform): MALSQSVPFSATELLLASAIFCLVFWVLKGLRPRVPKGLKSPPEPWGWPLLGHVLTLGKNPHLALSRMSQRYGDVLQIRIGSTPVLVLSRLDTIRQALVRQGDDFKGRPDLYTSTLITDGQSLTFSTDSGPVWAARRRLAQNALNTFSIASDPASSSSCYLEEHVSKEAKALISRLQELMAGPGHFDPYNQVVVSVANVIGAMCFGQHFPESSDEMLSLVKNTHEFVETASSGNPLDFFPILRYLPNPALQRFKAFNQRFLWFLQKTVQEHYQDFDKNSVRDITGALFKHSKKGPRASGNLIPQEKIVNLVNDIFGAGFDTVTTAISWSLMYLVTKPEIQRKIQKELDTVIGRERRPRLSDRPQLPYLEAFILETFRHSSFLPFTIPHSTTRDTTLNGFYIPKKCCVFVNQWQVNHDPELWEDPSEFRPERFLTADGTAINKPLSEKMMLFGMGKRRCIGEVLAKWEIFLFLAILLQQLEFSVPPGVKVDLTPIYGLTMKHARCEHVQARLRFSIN
Sequence of CYP2C9 (P11712 whole entry): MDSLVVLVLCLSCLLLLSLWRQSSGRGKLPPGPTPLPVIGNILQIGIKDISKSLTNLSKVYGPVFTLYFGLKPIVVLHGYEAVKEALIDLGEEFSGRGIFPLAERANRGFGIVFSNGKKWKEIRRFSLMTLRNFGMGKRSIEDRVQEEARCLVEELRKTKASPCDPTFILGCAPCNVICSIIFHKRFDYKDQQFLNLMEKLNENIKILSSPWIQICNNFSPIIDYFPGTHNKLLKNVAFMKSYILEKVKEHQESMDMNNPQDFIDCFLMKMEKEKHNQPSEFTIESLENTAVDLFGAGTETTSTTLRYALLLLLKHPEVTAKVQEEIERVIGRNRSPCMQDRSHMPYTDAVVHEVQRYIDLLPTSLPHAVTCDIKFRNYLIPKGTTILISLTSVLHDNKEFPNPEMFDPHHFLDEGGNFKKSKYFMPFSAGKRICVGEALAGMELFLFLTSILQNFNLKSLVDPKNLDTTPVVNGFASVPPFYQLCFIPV
Sequence of CYP3A4 (P08684 whole entry): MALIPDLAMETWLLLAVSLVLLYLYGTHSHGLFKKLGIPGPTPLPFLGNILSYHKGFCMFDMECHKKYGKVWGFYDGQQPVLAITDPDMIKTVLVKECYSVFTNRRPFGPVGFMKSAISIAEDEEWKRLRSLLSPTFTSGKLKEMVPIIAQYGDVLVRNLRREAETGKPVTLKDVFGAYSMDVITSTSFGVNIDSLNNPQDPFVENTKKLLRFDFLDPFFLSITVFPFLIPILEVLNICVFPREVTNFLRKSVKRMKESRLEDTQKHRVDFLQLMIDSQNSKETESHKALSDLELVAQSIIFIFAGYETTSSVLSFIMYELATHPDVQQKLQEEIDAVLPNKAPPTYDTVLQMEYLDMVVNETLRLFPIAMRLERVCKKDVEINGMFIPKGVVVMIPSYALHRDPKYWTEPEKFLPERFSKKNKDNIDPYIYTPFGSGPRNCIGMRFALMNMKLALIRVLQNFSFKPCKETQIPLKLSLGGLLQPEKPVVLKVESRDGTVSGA

- inhibitory effect on TrkA enzyme (in words) (TrkA): significant inhibitory effect
- IC50 (TrkA; 15 nM TrkA kinase, 100 μM ATP, 23° C., 120 minutes, read-out: Trk AIC50): 0.00664 µM
- IC50 (CYP1A2): > 0.05 µM
- IC50 (CYP2C19): > 50 µM
- IC50 (CYP2C9): 43.6 µM
- IC50 (CYP2D6): 31.7 µM
- IC50 (CYP3A4): > 50 µM
- AUC(0-inf) [1, 4]: 1970 ng·h/mL
- C0 [1, 4]: 3620 ng/mL
- clearance [1, 4]: 17.1 mL/min/kg
- half-life [1, 4]: 0.61 h
- Vd ([1]; Sprague Dawley, rat, plasma, 2 mg/kg, male rats, 2 mpk intravenous injection, read-out: Vdss): 0.7 L/kg
- AUC(0-inf) [1, 5]: 210000 ng·h/mL
- Cmax [1, 5]: 47600 ng/mL
- Tmax [1, 5]: 1.5 h
- bioavailability [1, 5]: 71.1%
- half-life [1, 5]: 1.7 h
- AUC(0-inf) [2, 6]: 1840 ng·h/mL
- C0 [2, 6]: 3940 ng/mL
- clearance [2, 6]: 18.4 mL/min/kg
- half-life [2, 6]: 0.72 h
- Vd ([2]; dog, plasma, 2 mg/kg, male Beagle dogs, 2 mpk intravenous injection, read-out: Vdss): 0.71 L/kg
- AUC(0-inf) [2, 7]: 12600 ng·h/mL
- Cmax [2, 7]: 4560 ng/mL
- Tmax [2, 7]: 1 h
- bioavailability [2, 7]: 91.3%
- half-life [2, 7]: 1.2 h
- risk of drug-drug interaction (in words) [3]: lower risk of drug-drug interaction
SMILES: COCCN1C[C@@H](n2ccc(F)c2)[C@H](NC(=O)Nc2c(C)c(-c3cnc(C4(F)COC4)nc3)nn2-c2ccccc2)C1 [Compounds of formula (1)]
- pharmacokinetic properties and oral bioavailability (in words) ([1]; rats): good pharmacokinetic properties and oral bioavailability
- pharmacokinetic properties and oral bioavailability (in words) ([2]; beagle dogs): good pharmacokinetic properties and oral bioavailability
